# Key:
# Assay in all cases: Ba/F3 drug screening, Cell Titer Glo, IC50 Mut/WT
# Format in all cases: cell-based
# EGFR L858R L718Q = target: T1, EGFR L858R L718Q (Homo sapiens, UniProt P00533, L718Q/L858R); conditions: PACC; L858R L718Q; Ba/F3; 72 hours
# T1 construct: host or cells: Ba/F3
# Protocol: (§1) Data represent the ratio of the IC50 value for a given TKI for cells with a PACC EGFR mutation to the IC50 value for cells with wildtype EGFR.
# (§2) Ba/F3 cell generation, drug screening, and IC50 approximations. Ba/F3 cells were obtained as a gift from Dr. Gordon Mills (MD Anderson Cancer Center), and maintained in RPMI (Sigma) containing 10% FBS, 1% penicillin/streptomycin, and 10 ng/ml recombinant mIL-3 (R&D Biosystems). To establish stable Ba/F3 cell lines, Ba/F3 cells were transduced with retroviruses containing mutant EGFR plasmids for 12-24 hours.
# (§3) After 48-72 hours of transduction, 2 μg/ml puromycin (Invitrogen) was added to Ba/F3 cell lines in complete RPMI. To select for EGFR positive cell lines, cells were stained with PE-EGFR (Biolegend) and sorted by FACS. After sorting, EGFR positive cells were maintained in RPMI containing 10% FBS, 1% penicillin/streptomycin, and 1 ng/ml EGF to support cell viability. Drug screening was performed as previously described^41,42. Shortly, cells were plated in 384-well plates (Greiner Bio-One) at 2000-3000 cells per well in technical triplicate. Seven different concentrations of TKIs or DMSO vehicle were added to reach a final volume of 40 μL per well. After 72 hours, 11 μL of Cell Titer Glo (Promega) was added to each well. Plates were incubated for a minimum of 10 minutes, and bioluminescence was determined using a FLUOstar OPTIMA plate reader (BMG LABTECH). Raw bioluminescence values were normalized to DMSO control treated cells, and values were plotted in GraphPad Prism. […] Drug screens were performed in technical triplicate on each plate and either duplicate or triplicate biological replicates.
# EGFR L747P = target: T2, EGFR L747P (Homo sapiens, UniProt P00533, L747P); conditions: PACC; L747P; Ba/F3; 72 hours
# T2 construct: expressed in transfected cells; host or cells: Ba/F3
# Protocol: as §1, §2
# (§4) After 48-72 hours of transduction, 2 μg/ml puromycin (Invitrogen) was added to Ba/F3 cell lines in complete RPMI. To select for EGFR positive cell lines, cells were stained with PE-EGFR (Biolegend) and sorted by FACS. After sorting, EGFR positive cells were maintained in RPMI containing 10% FBS, 1% penicillin/streptomycin, and 1 ng/ml EGF to support cell viability. Drug screening was performed as previously described^41,42. Shortly, cells were plated in 384-well plates (Greiner Bio-One) at 2000-3000 cells per well in technical triplicate. Seven different concentrations of TKIs or DMSO vehicle were added to reach a final volume of 40 μL per well. After 72 hours, 11 μL of Cell Titer Glo (Promega) was added to each well. Plates were incubated for a minimum of 10 minutes, and bioluminescence was determined using a FLUOstar OPTIMA plate reader (BMG LABTECH). Raw bioluminescence values were normalized to DMSO control treated cells, and values were plotted in GraphPad Prism. […] Drug screens were performed in technical triplicate on each plate and either duplicate or triplicate biological replicates. […] Statistical differences between groups were determined by ANOVA as described in the figure legends.
# EGFR Ex19del T790M L718V = target: T3, EGFR Ex19del T790M L718V (Homo sapiens, UniProt P00533, DEL746-750/L718V/T790M); conditions: T790M-like-3S, 72 hours
# T3 construct: expressed in transfected cells; host or cells: Ba/F3
# EGFR E709K L858R = target: T4, EGFR E709K L858R (Homo sapiens, UniProt P00533, E709K/L858R); conditions: Classical-Like, 72 hours
# T4 construct: expressed in transfected cells; host or cells: Ba/F3 cells, retroviral pBabe-Puro vector
# Protocol: (§5) Data represent the ratio of the IC50 value for a given TKI for cells with a classical-like EGFR mutation to the IC50 value for cells with wildtype EGFR.
# as §2
# (§6) After 48-72 hours of transduction, 2 μg/ml puromycin (Invitrogen) was added to Ba/F3 cell lines in complete RPMI. To select for EGFR positive cell lines, cells were stained with PE-EGFR (Biolegend) and sorted by FACS. After sorting, EGFR positive cells were maintained in RPMI containing 10% FBS, 1% penicillin/streptomycin, and 1 ng/ml EGF to support cell viability. […] Shortly, cells were plated in 384-well plates (Greiner Bio-One) at 2000-3000 cells per well in technical triplicate. Seven different concentrations of TKIs or DMSO vehicle were added to reach a final volume of 40 μL per well. After 72 hours, 11 μL of Cell Titer Glo (Promega) was added to each well. Plates were incubated for a minimum of 10 minutes, and bioluminescence was determined using a FLUOstar OPTIMA plate reader (BMG LABTECH). Raw bioluminescence values were normalized to DMSO control treated cells, and values were plotted in GraphPad Prism. […] Drug screens were performed in technical triplicate on each plate and either duplicate or triplicate biological replicates.
# EGFR L858R T790M L792H = target: T5, EGFR L858R T790M L792H (Homo sapiens, UniProt P00533, L792H/L858R/T790M); conditions: T790M-like-3S, 72 hours
# T5 construct: expressed in transfected cells; host or cells: Ba/F3
# Protocol: (§7) Data represent the ratio of the IC50 value for a given TKI for cells with a T790M-like-3S EGFR mutation to the IC50 value for cells with wildtype EGFR.
# as §2, §3
# EGFR N771dupN = target: T6, EGFR N771dupN (Homo sapiens, UniProt P00533, DUP771-771); conditions: Ex20, 72 hours
# T6 construct: expressed in transfected cells; host or cells: Ba/F3 cells, retroviral pBabe-Puro vector
# Protocol: (§8) Data represent the ratio of the IC50 value for a given TKI for cells with an ex20ins EGFR mutation to the IC50 value for cells with wildtype EGFR.
# as §2, §4
# EGFR L833F = target: T7, EGFR L833F (Homo sapiens, UniProt P00533, L833F); conditions: Classical-Like, 72 hours
# T7 construct: expressed in transfected cells; host or cells: Ba/F3 cells, retroviral pBabe-Puro vector
# Protocol: as §5, §2, §6
# EGFR L861R = target: T8, EGFR L861R (Homo sapiens, UniProt P00533, L861R); conditions: Classical-Like, 72 hours
# T8 construct: expressed in transfected cells; host or cells: Ba/F3 cells, retroviral pBabe-Puro vector (vector made by GeneScript from EGFR WT)
# Protocol: as §5, §2, §6
# EGFR L858R/T790M = target: T9, EGFR L858R/T790M (Homo sapiens, UniProt P00533, L858R/T790M); conditions: T790M-like-3S, 72 hours
# T9 construct: expressed in transfected cells; host or cells: Ba/F3
# EGFR L861Q = target: T10, EGFR L861Q (Homo sapiens, UniProt P00533, L861Q); conditions: Classical-Like, 72 hours
# T10 construct: expressed in transfected cells; host or cells: Ba/F3 cells, retroviral pBabe-Puro vector
# EGFR L718V = target: T11, EGFR L718V (Homo sapiens, UniProt P00533, L718V); conditions: PACC; L718V; Ba/F3; 72 hours
# T11 construct: expressed in transfected cells; host or cells: Ba/F3
# Protocol: as §1, §2, §3
# EGFR K757R = target: T12, EGFR K757R (Homo sapiens, UniProt P00533, K757R); conditions: PACC; K757R; Ba/F3; 72 hours
# T12 construct: expressed in transfected cells; host or cells: Ba/F3
# Protocol: as §1, §2, §4
# EGFR L858R/V834L = target: T13, EGFR L858R/V834L (Homo sapiens, UniProt P00533, L858R/V834L); conditions: Classical-Like, 72 hours
# T13 construct: expressed in transfected cells; host or cells: Ba/F3 cells, retroviral pBabe-Puro vector
# EGFR L718Q = target: T14, EGFR L718Q (Homo sapiens, UniProt P00533, L718Q); conditions: PACC; L718Q; Ba/F3; 72 hours
# T14 construct: expressed in transfected cells; host or cells: Ba/F3
# Protocol: as §1, §2, §3
# EGFR A763insLQEA = target: T15, EGFR A763insLQEA (Homo sapiens, UniProt P00533, INS763LQEA); conditions: Classical-Like, 72 hours
# T15 construct: expressed in transfected cells; host or cells: Ba/F3 cells, retroviral pBabe-Puro vector
# Protocol: as §5, §2, §6
# EGFR L858R/T790M/C797S = target: T16, EGFR L858R/T790M/C797S (Homo sapiens, UniProt P00533, C797S/L858R/T790M); conditions: T790M-like-3R, 72 hours
# T16 construct: expressed in transfected cells; host or cells: Ba/F3
# Protocol: Data represent the ratio of the IC50 value for a given TKI for cells with a T790M-like-3R EGFR mutation to the IC50 value for cells with wildtype EGFR.
# as §2
# After 48-72 hours of transduction, 2 μg/ml puromycin (Invitrogen) was added to Ba/F3 cell lines in complete RPMI. To select for EGFR positive cell lines, cells were stained with PE-EGFR (Biolegend) and sorted by FACS. After sorting, EGFR positive cells were maintained in RPMI containing 10% FBS, 1% penicillin/streptomycin, and 1 ng/ml EGF to support cell viability. […] Shortly, cells were plated in 384-well plates (Greiner Bio-One) at 2000-3000 cells per well in technical triplicate. Seven different concentrations of TKIs or DMSO vehicle were added to reach a final volume of 40 μL per well. After 72 hours, 11 μL of Cell Titer Glo (Promega) was added to each well. Plates were incubated for a minimum of 10 minutes, and bioluminescence was determined using a FLUOstar OPTIMA plate reader (BMG LABTECH). Raw bioluminescence values were normalized to DMSO control treated cells, and values were plotted in GraphPad Prism. […] Drug screens were performed in technical triplicate on each plate and either duplicate or triplicate biological replicates. […] Statistical differences between groups were determined by ANOVA as described in the figure legends.
# EGFR A763insFQEA = target: T17, EGFR A763insFQEA (Homo sapiens, UniProt P00533, INS763FQEA); conditions: Classical-Like, 72 hours
# T17 construct: expressed in transfected cells; host or cells: Ba/F3 cells, retroviral pBabe-Puro vector
# EGFR D761N = target: T18, EGFR D761N (Homo sapiens, UniProt P00533, D761N); conditions: Classical-Like, 72 hours
# T18 construct: expressed in transfected cells; host or cells: Ba/F3 cells, retroviral pBabe-Puro vector
# Protocol: as §5, §2, §6
# EGFR Ex19del/T790M/G724S = target: T19, EGFR Ex19del/T790M/G724S (Homo sapiens, UniProt P00533, DEL746-750/G724S/T790M); conditions: T790M-like-3S, 72 hours
# T19 construct: expressed in transfected cells; host or cells: Ba/F3
# Protocol: as §7, §2, §3
# EGFR L858R S784F = target: T20, EGFR L858R S784F (Homo sapiens, UniProt P00533, L858R/S784F); conditions: Classical-Like, 72 hours
# T20 construct: expressed in transfected cells; host or cells: Ba/F3 cells, retroviral pBabe-Puro vector (vector made by GeneScript from EGFR L858R)
# Protocol: as §5, §2, §6
# EGFR D770insNPG = target: T21, EGFR D770insNPG (Homo sapiens, UniProt P00533, INS770NPG); conditions: Ex20, 72 hours
# T21 construct: expressed in transfected cells; host or cells: Ba/F3 cells, retroviral pBabe-Puro vector
# Protocol: as §8, §2, §4
# EGFR S768dupSVD V769M = target: T22, EGFR S768dupSVD V769M (Homo sapiens, UniProt P00533, INS768MDS/V769M); conditions: Ex20, 72 hours
# T22 construct: expressed in transfected cells; host or cells: Ba/F3 cells, retroviral pBabe-Puro vector (vector made by GeneScript from EGFR S768dupSVD, c.2305G > A)
# Protocol: as §8, §2, §4
# EGFR S768I V774M = target: T23, EGFR S768I V774M (Homo sapiens, UniProt P00533, S768I/V774M); conditions: PACC; S768I V774M; Ba/F3; 72 hours
# T23 construct: host or cells: Ba/F3
# EGFR S811F = target: T24, EGFR S811F (Homo sapiens, UniProt P00533, S811F); conditions: Classical-Like, 72 hours
# T24 construct: expressed in transfected cells; host or cells: Ba/F3 cells, retroviral pBabe-Puro vector (vector made by GeneScript from EGFR WT)
# Protocol: as §5, §2, §6
SMILES,ratio of IC50 for cells with mutant EGFR to IC50 for cells with wildtype EGFR (Mut/WT) (EGFR L858R L718Q),ratio of IC50 for cells with mutant EGFR to IC50 for cells with wildtype EGFR (Mut/WT) (EGFR L747P),ratio of IC50 for cells with mutant EGFR to IC50 for cells with wildtype EGFR (Mut/WT) (EGFR Ex19del T790M L718V),ratio of IC50 for cells with mutant EGFR to IC50 for cells with wildtype EGFR (Mut/WT) (EGFR E709K L858R),ratio of IC50 for cells with mutant EGFR to IC50 for cells with wildtype EGFR (Mut/WT) (EGFR L858R T790M L792H),ratio of IC50 for cells with mutant EGFR to IC50 for cells with wildtype EGFR (Mut/WT) (EGFR N771dupN),ratio of IC50 for cells with mutant EGFR to IC50 for cells with wildtype EGFR (Mut/WT) (EGFR L833F),ratio of IC50 for cells with mutant EGFR to IC50 for cells with wildtype EGFR (Mut/WT) (EGFR L861R),ratio of IC50 for cells with mutant EGFR to IC50 for cells with wildtype EGFR (Mut/WT) (EGFR L858R/T790M),ratio of IC50 for cells with mutant EGFR to IC50 for cells with wildtype EGFR (Mut/WT) (EGFR L861Q),ratio of IC50 for cells with mutant EGFR to IC50 for cells with wildtype EGFR (Mut/WT) (EGFR L718V),ratio of IC50 for cells with mutant EGFR to IC50 for cells with wildtype EGFR (Mut/WT) (EGFR K757R),ratio of IC50 for cells with mutant EGFR to IC50 for cells with wildtype EGFR (Mut/WT) (EGFR L858R/V834L),ratio of IC50 for cells with mutant EGFR to IC50 for cells with wildtype EGFR (Mut/WT) (EGFR L718Q),ratio of IC50 for cells with mutant EGFR to IC50 for cells with wildtype EGFR (Mut/WT) (EGFR A763insLQEA),ratio of IC50 for cells with mutant EGFR to IC50 for cells with wildtype EGFR (Mut/WT) (EGFR L858R/T790M/C797S),ratio of IC50 for cells with mutant EGFR to IC50 for cells with wildtype EGFR (Mut/WT) (EGFR A763insFQEA),ratio of IC50 for cells with mutant EGFR to IC50 for cells with wildtype EGFR (Mut/WT) (EGFR D761N),ratio of IC50 for cells with mutant EGFR to IC50 for cells with wildtype EGFR (Mut/WT) (EGFR Ex19del/T790M/G724S),ratio of IC50 for cells with mutant EGFR to IC50 for cells with wildtype EGFR (Mut/WT) (EGFR L858R S784F),other results
COc1cc2ncnc(Nc3ccc(F)c(Cl)c3)c2cc1NC(=O)/C=C/CN1CCCCC1 [Dacomitinib],0.051,0.2972,89.62,0.007985,8.291,6.261,0.1863,0.001653,10,0.002064,0.1103,0.04087,0.009314,0.3828,0.001484,41.69,0.0379,0.0008794,9.95,0.06448,ratio of IC50 for cells with mutant EGFR to IC50 for cells with wildtype EGFR (Mut/WT) (EGFR D770insNPG): 5.404; ratio of IC50 for cells with mutant EGFR to IC50 for cells with wildtype EGFR (Mut/WT) (EGFR S768dupSVD V769M): 3.097; ratio of IC50 for cells with mutant EGFR to IC50 for cells with wildtype EGFR (Mut/WT) (EGFR S768I V774M): 0.1407; ratio of IC50 for cells with mutant EGFR to IC50 for cells with wildtype EGFR (Mut/WT) (EGFR S811F): 0.1673
CN(C)C/C=C/C(=O)Nc1cc2c(Nc3ccc(Cl)c(Br)c3)ncnc2cn1 [Tarlox-TKI],0.3655,2.085,154.4,0.005792,5.198,7.062,0.07887,0.01926,11.95,0.05346,1.421,0.3019,0.002571,0.06989,0.0269,20.7,0.05463,0.1319,4.197,0.001643,ratio of IC50 for cells with mutant EGFR to IC50 for cells with wildtype EGFR (Mut/WT) (EGFR D770insNPG): 5.023; ratio of IC50 for cells with mutant EGFR to IC50 for cells with wildtype EGFR (Mut/WT) (EGFR S768dupSVD V769M): 0.33; ratio of IC50 for cells with mutant EGFR to IC50 for cells with wildtype EGFR (Mut/WT) (EGFR S768I V774M): 0.2117; ratio of IC50 for cells with mutant EGFR to IC50 for cells with wildtype EGFR (Mut/WT) (EGFR S811F): 0.1118

# — US20240384350A1, “METHODS OF TREATING CANCER WITH KINASE INHIBITORS” (BOARD OF REGENTS, THE UNIVERSITY OF TEXAS SYSTEM, priority 2021, published 2024)
